The values below come from EP1285918A1, “C7 Ester substituted taxanes as antitumor agents” (Florida State University Research Foundation, Inc., priority 2001, dated 2003).

Read-outs that look alike come from different tables or passages of the source.

Data set [1] concerns Panc-1 Human Pancreatic Carcinoma Xenografts. To be noted: i.v. qd x 1 at estimated MTD; 6 mice/group; study end Day 63. The method, then:
(§1) Other antitumor compounds were similarly formulated. […] The dosing volume was 0.3 mL per 20 g mouse.
Female NCr-nude mice (6-8 weeks of age, implanted subcutaneously with 1 mm^3 Panc-1 pancreatic carcinoma fragments in the flank) were sorted into treatment groups of six mice each. […] Dosing was initiated on Day 1. The antitumor compounds were given i.v. at an estimated maximum tolerated dose (MTD) appropriate for each agent on a qd x 1 schedule (single administration of compound). […] Taxotere was given i.v. at a dose of 70 mg/kg on a qd x 1 schedule. The vehicle was given i.v. to control mice in Group 1 in each test on Day 1 (qd x 1) schedule. Treatment groups are detailed in Table 12. The study was terminated on Day 63.
The mean days of survival is the number of days after which a neoplasm reached a size of 1.5 g and the animal was euthanized. A complete response is obtained if the tumor is not palpable at the end of the study. A partial response is obtained if the tumor shrinks to a size smaller than its size on Day 1 of the study.

Data set [2] concerns DU 145 Human Prostate Carcinoma Xenografts. To be noted: DU145, i.v. qd x 1 (mg/kg: Taxol 24, 1351 107.6, 1393 72.6, 1401 107.6, 1418 107.6, 1424 195.1). As to the method:
(§2) Other antitumor compounds were similarly formulated. […] The dosing volume was 0.3 ml per 20 g mouse.
Male NCr-nude mice (implanted subcutaneously with 1 mm^3 DU145 prostate carcinoma fragments in the flank) were sorted into treatment groups of five mice each. […] Dosing was initiated on Day 1. The antitumor compounds were given i.v. at an estimated maximum tolerated dose (MTD) appropriate for each agent on a qd x 1 schedule (single administration of compound). […] The vehicle was administered i.v. to control mice in Group 1 on the qd x 1 schedule. The study was terminated on Day 91. Treatment groups are detailed in Table 5.
The mean days of survival is the number of days after which a neoplasm reached a size of 1.5 g and the animal was euthanized. A complete response is obtained if the tumor is not palpable at the end of the study. A partial response is obtained if the tumor shrinks to a size smaller than its size on Day 1 of the study. […]

Data set [3] has as its system A375 Human Melanoma Xenografts. Particulars: A375, i.v. qd x 1 (mg/kg: Taxol 24, 1351 107.6, 1393 72.6, 1401 107.6, 1418 107.6, 1424 195.1, Taxotere 70). As to the method: as §2
Female NCr-nude mice (implanted subcutaneously with 1 mm^3 A375 melanoma in the flank) were sorted into treatment groups of six mice each, except for the Taxotere group having seven mice each. […] Dosing was initiated on Day 1. The antitumor compounds were given i.v. at an estimated maximum tolerated dose (MTD) appropriate for each agent on a qd x 1 schedule (single administration of compound). […] Taxotere was given i.v. on a qd x 1 schedule at a dose of 70 mg/kg. The vehicle was administered i.v. to control mice in Group 1 on the qd x 1 schedule. Treatment groups are detailed in Table 9. The study was terminated on Day 60.
The results are summarized in Table 10 and include mean days of survival (MDS), number of toxic deaths, number of survivors, number of complete or partial responses, and number with stable disease. The mean days of survival is the number of days after which a tumor reached a size of 2.0 g and the animal was euthanized. A complete response is obtained if the tumor is not palpable at the end of the study. A partial response is obtained if the tumor shrinks to a size smaller than its size on Day 1 of the study. […]

The subject of data set [4] is VM46 Human Colon Carcinoma Xenografts. Particulars: 6 mice/group. The method, then:
as §1
Female NCr-nude mice (6-8 weeks of age, implanted subcutaneously with 1 mm^3 VM46 colon carcinoma fragments in the flank) were sorted into treatment groups of six mice each. […] Dosing was initiated on Day 1. The antitumor compounds were given i.v. at an estimated maximum tolerated dose (MTD) appropriate for each agent on a qd x 1 schedule (single administration of compound). […] Taxotere was given i.v. at a dose of 70 mg/kg on a qd x 1 schedule. The vehicle was given i.v. to control mice in Group 1 in each test on Day 1 (qd x 1) schedule. Treatment groups are detailed in Table 13. The VM46 study ended on Day 64.
The results are summarized in table 14 and include mean days of survival (MDS), number of toxic deaths, number of survivors, number of complete or partial responses, and number with stable disease. The mean days of survival is the number of days after which a neoplasm reached a size of 1.5 g and the animal was euthanized. A complete response is obtained if the tumor is not palpable at the end of the study. A partial response is obtained if the tumor shrinks to a size smaller than its size on Day 1 of the study. […]

Data set [5] has as its system MX-1 Human Breast Carcinoma Xenograft. Nature of the data set: In vivo evaluation of oral administration of antitumor compounds against MX-1 human breast carcinoma xenograft (Example 25). To be noted: for Maximum Weight Loss (Day) / Partial Response / Stable Disease / Toxic Deaths / Mean Day of Survival (n): 6 mice/group; for Maximum Weight Loss (Day): on Day 5; for Partial Response / Stable Disease / Toxic Deaths / Mean Day of Survival (n): study end Day 63; for Mean Day of Survival (n): days until tumor reached 1.5 g; for survival compared to vehicle control mice: MX-1, single oral bolus, doses of Table 22, Day 63; for Complete Response: po, 1512 h. An excerpt: This study investigated the efficacy of various antitumor compounds when administered orally against the MX-1 human breast carcinoma xenograft.
(§3) The study was terminated on Day 63.
A general note: A xenograft is tissue or cells of one species grown in another, often human tumour cells in immunodeficient mice.

Data set [6] concerns blood cell populations. Nature of the data set: Effect of oral treatment on blood cell populations, body weight and tumor weight in MX-1 bearing mice (Example 25, Table 23). The format is in vivo, nu/nu mice. Particulars: for Weight: tumor weight at Day 18. As to the method:
as §3
In addition to survival and tumor regression responses, the effect of treatment on blood cell populations was assessed. The major effect of these antitumor compounds on blood cell populations was a marked reduction in the neutrophil cell number. As well, monocyte depletion correlated fairly well with neutrophil reduction for each antitumor compound. […] There was a correlation between antitumor activity and reduced neutrophil count. In general, toxicity (as determined by neutrophil depletion) and weight loss correlated with efficacy. Importantly, the toxicities observed with the very efficacious antitumor compounds were manageable and reversible; neutrophil count and body weight rebounded from their low points in just a few days. Table 23 summarizes the weight reduction, neutrophil and monocyte measurements on Day 4, with tumor weight reduction calculated at Day 18: Table 23

The subject of data set [7] is HCT116. The data set is described as follows: In Vitro cytotoxicity measured by the cell colony formation assay. The format is cell-based. Particulars: Homo sapiens, HCT-116; 72 h drug incubation, colonies counted after 7 days; concentration producing 50% inhibition of colony formation; read-out: IN VITRO ID 50 (nm) HCT116. The method, then:
In Vitro cytotoxicity measured by the cell colony formation assay
Four hundred cells (HCT116) were plated in 60 mm Petri dishes containing 2.7 mL of medium (modified McCoy's 5a medium containing 10% fetal bovine serum and 100 units/mL penicillin and […] streptomycin). The cells were incubated in a CO2 incubator at 37 °C for 5 h for attachment to the bottom of Petri dishes. The compounds identified in Example 2 were made up fresh in medium at ten times the final concentration, and then 0.3 mL of this stock solution was added to the 2.7 mL of medium in the dish. The cells were then incubated with drugs for 72 h at 37 ° C. At the end of incubation the drug-containing media were decanted, the dishes were rinsed with 4 mL of Hank's Balance Salt Solution (HBSS), 5 mL of fresh medium was added, and the dishes were returned to the incubator for colony formation. The cell colonies were counted using a colony counter after incubation for 7 days. Cell survival was calculated and the values of ID50 (the drug concentration producing 50% inhibition of colony formation) were determined for each tested compound.

Where [8] appears, read: tumor score 1 to 10, group mean.
The mark [9] stands for this setting: 195.1 mg/kg i.v. qd x 1, study end Day 64.
The mark [10] stands for this setting: Day 4, 233 mg/kg single oral bolus.
Setting [11] is: Day 4, 160 mg/kg single oral bolus.

Regarding `CCC(=O)O[C@H]1C[C@H]2OC[C@@]2(OC(C)=O)[C@H]2[C@H](OC(=O)c3ccccc3)[C@]3(O)C[C@H](OC(=O)[C@H](O)[C@@H](NC(=O)OC(C)(C)C)c4ccsc4)C(C)=C([C@@H](O)C(=O)[C@]12C)C3(C)C` [Compound 1424], the “Complete Response” value is 0 in data set [1]; 0 in data set [2] (5 mice/group, Day 91); 0 in data set [3] (Day 60); 0 in data set [4] (setting [9]). Moreover, the “Mean Score” value is given as 0 ± 0 in data set [1], 3.6 ± 1.1 in data set [2] (setting [8]), 1 ± 0.6 in data set [3] (setting [8]) and 0.8 ± 0.4 in data set [4] (setting [9]). Also, the “Partial Response” value is 0 in data set [1]; 1 in data set [2] (5 mice/group, Day 91); 0 in data set [3] (Day 60); 0 in data set [4] (setting [9]). Besides, the “Stable Disease” value in data set [1] is given as 0; in data set [2] (5 mice/group, Day 91), 0; in data set [3] (Day 60), 0; in data set [4] (setting [9]), 0. The Survivors was 0 in data set [1]; 1 in data set [2] (5 mice/group, Day 91); 0 in data set [3] (Day 60); 0 in data set [4] (setting [9]). The “Toxic Deaths” value in data set [1] was 6; in data set [2] (5 mice/group, Day 91), 0; in data set [4] (setting [9]), 3; in data set [4] (VM46, i.v. qd x 1 at estimated MTD), “three”. In addition, the “MDS (n)” value is given as 76.0 ± 5.4 (4) days in data set [2] (5 mice/group, 1.5 g cut-off, Day 91); 30.7 ± 1.1 (2) days in data set [3] (2.0 g cut-off, Day 60); 45.4 ± 8.1 (3) days in data set [4] (195.1 mg/kg i.v. qd x 1, study end Day 64, days until tumor reached 1.5 g).

As to `CCC(=O)O[C@H]1C[C@H]2OC[C@@]2(OC(C)=O)[C@H]2[C@H](OC(=O)c3ccccc3)[C@]3(O)C[C@H](OC(=O)[C@H](O)[C@@H](NC(=O)OC(C)(C)C)c4ccccc4)C(C)=C([C@@H](O)C(=O)[C@]12C)C3(C)C` [Compound 1458], in data set [5] (233 mg/kg single oral bolus), the “Maximum Weight Loss (Day)” value is on record as -5.8% (5), the “Partial Response” value came out at 0, the “Stable Disease” value is 0 and the “Toxic Deaths” value was 0. In addition, the “Mean Day of Survival (n)” value in data set [5] (233 mg/kg single oral bolus) is on record as 46.0 ± 1.6 (5) days. Moreover, in data set [5], the “survival compared to vehicle control mice” value is “significant survival extensions”. The “Complete Response” value in data set [5] (233 mg/kg) is on record as 1. Further, in data set [6] (setting [10]), the “Monocytes (K/µL)” value was found to be 0.057 K/µL and the “Neutrophils (K/µL)” value is recorded as 0.232 K/µL. Besides, in data set [6] (reduction of monocytes, Day 4, 233 mg/kg single oral bolus), the “% Reduction” value is 40.6%. For the same compound, in data set [6] (reduction of neutrophils, Day 4, 233 mg/kg single oral bolus), the “% Reduction” value is on record as 74.5%. In addition, in data set [6] (reduction of tumor weight at Day 18, 233 mg/kg single oral bolus), the “% Reduction” value stood at 97.5%. Also, in data set [6] (233 mg/kg single oral bolus), the “Weight” value is 21.8 mg. The IC50 in data set [7] was less than 10 nM.

Take `CCC(=O)OC1CC2OCC2(OC(C)=O)C2C(OC(=O)c3ccccc3)C3(O)CC(OC(=O)C(O)C(NC(=O)c4ccccc4)c4ccco4)C(C)=C(C(O)C(=O)C12C)C3(C)C` (stereo not shown) [Compound 4017]: in data set [5] (160 mg/kg single oral bolus), the “Maximum Weight Loss (Day)” value was -4.3% (5), the “Partial Response” value stood at 0, the “Stable Disease” value was 0 and the “Toxic Deaths” value amounted to 1. Besides, in data set [5] (160 mg/kg single oral bolus), the “Mean Day of Survival (n)” value is given as 39.4 ± 4.6 (5) days. Further, in data set [5], the “survival compared to vehicle control mice” value is “significant survival extensions”. Moreover, the “Complete Response” value in data set [5] (160 mg/kg) came to 0. In data set [6] (setting [11]), the “Monocytes (K/µL)” value was found to be 0.073 K/µL and the “Neutrophils (K/µL)” value came out at 0.228 K/µL. Also, the “% Reduction” value in data set [6] (reduction of monocytes, Day 4, 160 mg/kg single oral bolus) worked out at 24.0%. Further, the “% Reduction” value in data set [6] (reduction of neutrophils, Day 4, 160 mg/kg single oral bolus) amounted to 75.0%. Also, the “% Reduction” value in data set [6] (reduction of tumor weight at Day 18, 160 mg/kg single oral bolus) was found to be 70.5%. Moreover, in data set [6] (160 mg/kg single oral bolus), the “Weight” value is 256.5 mg. Moreover, the IC50 in data set [7] is less than 10 nM.
